# Assays:
# Format in all cases: biochemical
# [1] = test system: Brk-lipase: Bacillus sp. 42 thermostable organic solvent tolerant lipase (encoding nucleic acid SEQ ID NO: 15) fused to BrkA autotransporter, on the surface of …; test: Lipase activity, continuous spectrophotometric rate determination at 400 nm, Michaelis-Menten fit, Brk-lipase on minicell surface; details: 4-nitrophenyl-butyrate 0-5 mM, 37° C., pH 7.2; Cells/Well: 17,706,667; best-fit value
# Experimental: (§1) Kinetic analysis of the reaction was analyzed by continuous spectrophotometric rate determination at 400 nm.
# For a bacterial surface display system named as BrkAutoDisplay based on the structure of autotransporter BrkA (Bordetella serum-resistance killing protein A) was used to host an exogenous gene encoding lipase. To construct a recombinant Brk-lipase expression vector, Brk autotransporter gene was first cloned into the pGEX-6P-1 plasmid. Using BamHI and EcoRI restriction sites, the lipase-encoding gene was ligated with the Brk autotransporter gene, as illustrated in FIG. 6A. […]
# (§2) In order to further confirm presence of the functional lipase-fusion protein in both the elution fraction from the protein purification and the surface of the cell, a lipase activity assay was designed using the lipase substrate, 4-nitrophenyl-butyrate. […] The pathlength, 0.625 cm, was calculated from the known volume of the well (200 uL) and the well's surface area (0.32 cm^2).
# (§3) For the enzymatic assay, required are the reaction buffer (100 mM Sodium Phosphate Buffer solution pH 7.2, 0.5% (v/v) Triton-X 100, 150 mM Sodium Chloride), the enzyme/cell solution in 1×PBS, and the substrate solution which is varying concentrations of 4-nitrophenyl-butyrate in acetonitrile. […] Vmax and Km were calculated using GraphPad Prism Michaelis-Menten fitting parameters. […]
# [2] = test system: AIDA-lipase (pAIDA-lipase): Bacillus sp. 42 thermostable organic solvent tolerant lipase (encoding nucleic acid SEQ ID NO: 15) fused to AIDA-1 autotransporter …; test: Lipase activity, continuous spectrophotometric rate determination at 400 nm, Michaelis-Menten fit, AIDA-lipase on minicell surface; details: 4-nitrophenyl-butyrate 0-5 mM, 37° C., pH 7.2; Cells/Well: 99,946,667; best-fit value
# Experimental: as §1
# This construction was conducted with primarily designed pAIDA-1 plasmid (from Addgene, Cambridge, MA) in which the lipase-encoding gene was ligated into the passenger domain within the AIDA-I autotransporter using KpnI and SacI sites as illustrated in FIG. 4A. The tags existed on the pAIDA-1 plasmid prior were used for further analysis on lipase expression. After the ligation is completed, the 6× His tag and HRV3C site are located at N-terminus of the lipase-encoding gene and the Myc tag and TEV site are placed at C-terminus of the lipase-encoding gene. The 6× His tag, which is the 5′ end of the surface-expressed fusion lipase protein was used for Cobalt immobilized metal affinity chromatography (IMAC) and for immunofluorescent staining with THE His Tag antibody [FITC] from Genscript. […]
# as §2, with “cm^2). […]” for “cm^2).”
# [3] = test system: InaK-lipase: Bacillus sp. 42 thermostable organic solvent tolerant lipase (encoding nucleic acid SEQ ID NO: 15) fused to Ice Nucleation Protein InaK, on the …; test: Lipase activity, continuous spectrophotometric rate determination at 400 nm, Michaelis-Menten fit, InaK-lipase on minicell surface; details: 4-nitrophenyl-butyrate 0-5 mM, 37° C., pH 7.2; Cells/Well: 107,840,000; best-fit value
# Experimental: as §1
# Another bacterial surface display protein, Ice Nucleation Protein K (InaK) was used for expressing recombinant lipase proteins fused to anchoring linker protein (motif) that direct the incorporated fusion protein on the surface of minicells. Like BrkAutoDisplay, polynucleotide encoding Inak transmembrane protein and the lipase-encoding gene were inserted into the pGEX-6P-1 vector for producing the bacterial surface display lipase protein as illustrated in FIG. 7A. […]
# as §2
# as §3, with “Activity was determined from a Michaelis-Menten fit of the” for “Vmax and Km were”, “rates resulting from varying the substrate concentration according to the Table 10.” for “using GraphPad Prism Michaelis-Menten fitting parameters.”
structure (smiles),measurement,setting,value
CCCC(=O)Oc1ccc([N+](=O)[O-])cc1 [4-nitrophenyl-butyrate],Km,[1],221 µM
same,Vmax,[1],0.04453 µM/s
same,Km,[2],180 µM
same,Vmax,[2],0.08174 µM/s
same,Km,[3],302 µM
same,Vmax,[3],0.06354 µM/s
